Entries after “also recorded” stand apart in the source; their conditions may differ. Where two headings read alike, the source gives them in different places.

We go through 20 compounds from patent EP0559845B1, “Use of compounds in preventing endotoxin shock” (priority 1991, dated 1992).

What all share (format): biochemical
In experiment [1] the test system is LPS-induced GTPase activity in membranes isolated from RAW 264.7 cells. Put plainly: GTPase assay: effect of compounds on LPS-stimulated GTPase activity in macrophage membranes (release of 32Pi from γ-32P-GTP). The conditions noted are these: for relative abilities of purines to stimulate LPS-enhanced GTPase: dose-response studies, rank order; for sensitivity of LPS-stimulated GTPase activity to inhibitor: high concentrations of inhibitor, 0.1 mM ATP and 0.2 mM AMPPNP. An excerpt:
(§1) We sought to directly evaluate the influence of LPS on possible G-protein function by examining agonist-enhanced GTPase activity, which is a hallmark of G-protein action. Moreover, because macrophages are one of the key cell types in the release of toxic mediators following an LPS challenge, we first assessed the capacity of LPS to influence GTPase activity in membranes isolated from RAW 264.7 cells, which is a highly LPS-responsive macrophage cell line. In these studies, GTPase activity was measured using a standard assay. The activity was determined using 2 µM γ-^32P-GTP in the presence of 0.1 mM ATP and 0.2 mM of the non-hydrolyzable ATP analog, AMPPNP, in order to minimize nonspecific nucleotidase activity in the membrane preparations.
The reaction is initiated by the addition of the γ-^32P-GTP and the mixture incubated at 30-37°C for 15 to 30 minutes. The reaction is terminated by the addition of 500µl of 5% trichloroacetic acid and 500µl of 0.1gm/ml acid-activated charcoal in 5% trichloroacetic acid. The samples are centrifuged at 14,000xg for 10 minutes, and a 550µl aliquot of the supernatant is removed for scintillation counting. The supernatant will contain the released ^32Pi. The extent of GTPase inhibition is measured by the decrease in the amount of ^32Pi released from γ-^32P-GTP. Appropriate controls include mixtures with one of the following omitted: (i) test compound, (ii) endotoxin, and (iii) ATP, ADP or AMPPNP.
The membranes are resuspended in 20 mM HEPES (pH 7.4), 1 mM dithiothreitol, 1 mM EDTA and 10 µg leupeptin/ml. Aliquots are stored at -70°C until assayed.

In experiment [2] the test system is GTPase activity in membranes isolated from a macrophage (RAW 264.7) cell line. Put plainly: GTPase assay: basal or agonist-stimulated GTPase activity in macrophage membranes.
Description: as §1, with “preparations. In the preferred practice of the present invention, the ability of a candidate compound to inhibit LPS-induced GTPase is assessed by measuring the release of ^32Pi from γ-^32P-GTP.” for “preparations.”
We first determined the optimal LPS concentration for GTPase stimulation. In all experiments, the LPS dose response curve was quite steep, and with the highest activity occurring around 200-300 µg LPS/ml.
(§2) Under these conditions, GTPase activation was evident at 100 µg LPS/ml (roughly 6 µM assuming an average MW ∼ 17,000 kDa), and the maximal effect was seen by 300 µg/ml LPS. (2) To show adenosine mucleotide synergism with LPS-stimulated GTPase activity, either 10µM ATP or 30µM ADP replace the 0.1 mM ATP and 0.2 mM AMPPNP of the standard assay described by Cassel et al. and Neer et al.
(§3) In the preferred assay, a candidate compound (.001 - 1000 µM) is dissolved or suspended in 100µl of a reaction buffer containing 20mM HEPES (pH 7.4), 0.01mM ATP or ADP, membranes isolated from RAW 264.7 cells, 2µM γ-^32P-GTP (3-9 X 10cpm/pmol), 5mM MgCl2, 18µM LPS (based on an estimated MW of 17,000 kDa for E. coli 0111:B4 endotoxin), and 250 mM ammonium sulfate. The reaction is initiated by the addition of the γ-^32P-GTP and the mixture incubated at 30-37°C for 15 to 30 minutes. The reaction is terminated by the addition of 500µl of 5% trichloroacetic acid and 500µl of 0.1gm/ml acid-activated charcoal in 5% trichloroacetic acid. The samples are centrifuged at 14,000xg for 10 minutes, and a 550µl aliquot of the supernatant is removed for scintillation counting. The supernatant will contain the released ^32Pi. The extent of GTPase inhibition is measured by the decrease in the amount of ^32Pi released from γ-^32P-GTP. Appropriate controls include mixtures with one of the following omitted: (i) test compound, (ii) endotoxin, and (iii) ATP, ADP or AMPPNP.
(§4) The macrophage-like cell line RAW 264.7 is cultured as described using RPMI 1640 medium supplemented with 10% fetal calf serum (FCS) containing < 0.1 ng/ml LPS. The membranes are resuspended in 20 mM HEPES (pH 7.4), 1 mM dithiothreitol, 1 mM EDTA and 10 µg leupeptin/ml. Aliquots are stored at -70°C until assayed.
To assess whether the LPS/ATP-enhanced GTPase is a "low Km" form, which would be expected for a variety of large and small MW G-proteins, as well as for various GAP and ARF-like proteins, as opposed to a "high Km" form, such as a phosphatase, we assayed the GTPase activity using 0.2 and 50 µM GTP essentially as described previously. […] The LPS and ATP stimulated a low Km GTPase activity by ∼30% and 70%, respectively, when added individually. This stimulation of low Km activity was slightly greater than that estimated using the standard assay conditions. […] The LPS stimulation of GTPase activity is enhanced by adenine nucleotides.

The test system of experiment [3] is LPS-induced GTPase activity in membranes isolated from RAW 264.7 cells. Put plainly: GTPase assay (release of 32Pi from γ-32P-GTP), LPS-stimulated activity. The conditions noted are these: for LPS-stimulated GTPase activity when adenine nucleotide included in the incubation: compared with no added adenine nucleotides.
Description: as §1, with “preparations. In the preferred practice of the present invention, the ability of a candidate compound to inhibit LPS-induced GTPase is assessed by measuring the release of ^32Pi from γ-^32P-GTP.” for “preparations.”
as §2, §3, §4

Take `Nc1ncnc2c1ncn2[C@@H]1O[C@H](COP(=O)(O)OP(=O)(O)OP(O)(O)=S)[C@@H](O)[C@H]1O` [ATPγS]: the “relative abilities of purines to stimulate LPS-enhanced GTPase” value (shortened to “relative abilities of purines”) in experiment [1] was “ATP> ATPγS> ADP> AMPPNP>> β,γ methylene ATP> 2-MeSATP”.
For phosphatidic acid, in experiment [2] (no LPS), the “effect on basal GTPase activity” value is given as “did not stimulate basal GTPase activity”. Moreover, in experiment [1], the “inhibition of LPS-stimulated GTPase activity” value (“inhibition” for short) is given as “nor inhibit LPS-stimulated GTPase activity”.
Regarding `O=[N+]([O-])c1ccc(OP(=O)(O)O)cc1` [p-nitrophenyl-phosphate], in experiment [1], the “inhibition” value is given as “not antagonized” and the “sensitivity of LPS-stimulated GTPase activity to inhibitor” value was “insensitivity”.
On to Triton X-100, for which the “effect on basal GTPase activity” value in experiment [2] (no LPS) is “did reduce basal GTPase activity”. Also, the “inhibition” value in experiment [1] was “did not substantially interfere”.
As for `Nc1ncnc2c1ncn2[C@@H]1O[C@H](CO)[C@@H](O)[C@H]1O` [adenosine], the “stimulation of LPS-enhanced GTPase activity” value in experiment [1] (at 100 µM) is “ineffective; also recorded: did not synergistically increase”.
For `C[C@@H]1O[C@@H](O[C@H]2C[C@@H](O)[C@]3(CO)[C@H]4[C@H](O)C[C@]5(C)[C@@H](C6=CC(=O)OC6)CC[C@]5(O)[C@@H]4CC[C@]3(O)C2)[C@H](O)[C@H](O)[C@H]1O` [ouabain], in experiment [1], the “inhibition” value was “not antagonized” and the “sensitivity of LPS-stimulated GTPase activity to inhibitor” value is listed as “insensitivity”. In experiment [1] (in the presence of ADP), the “inhibition” value is recorded as “did not block”.
Take `O=c1ccn([C@@H]2O[C@H](COP(=O)(O)OP(=O)(O)OP(=O)(O)O)[C@@H](O)[C@H]2O)c(=O)[nH]1` [UTP]: the “stimulation of LPS-enhanced GTPase activity” value in experiment [1] (at 100 µM) is “did not synergistically increase”.
For `[Na+].[Na+].[Na+].[O]=[V]([O-])([O-])[O-]` [sodium orthovanadate], in experiment [1], the “inhibition” value is given as “did block LPS activation”.
With `Cn1c(=O)c2[nH]cnc2n(C)c1=O` [theophylline], in experiment [1] (at 100 µM), the “stimulation of LPS-enhanced GTPase activity” value is recorded as “did not synergistically increase”.
For `Nc1ncnc2c1ncn2[C@@H]1O[C@H](COP(=O)(O)OP(=O)(O)NP(=O)(O)O)[C@@H](O)[C@H]1O` [AMPPNP], the “LPS-stimulated GTPase activity when adenine nucleotide included in the incubation” value in experiment [3] is reported as “pronounced increase”. Also, in experiment [1], the “stimulation (potentiation) of LPS-stimulated GTPase activity” value (shortened to “stimulation (potentiation)”) is “pronounced increase in LPS-stimulated GTPase activity” and the “relative abilities of purines” value is recorded as “ATP> ATPγS> ADP> AMPPNP>> β,γ methylene ATP> 2-MeSATP”.
Consider `CO/C1=C\C(C)=C\[C@@H](C)[C@@H](O)[C@@H](C)C/C(C)=C/C=C/[C@H](OC)[C@@H]([C@@H](C)[C@@H](O)[C@H](C)[C@@]2(O)C[C@@H](O)[C@H](C)[C@@H](C(C)C)O2)OC1=O` [bafilomycin], for which the “inhibition” value in experiment [1] is “not antagonized”; in experiment [1] (in the presence of ADP) it was “did not block”.
Turning to `Nc1ncnc2c1ncn2[C@@H]1O[C@H](COP(=O)(O)O)[C@@H](O)[C@H]1O` [AMP], in experiment [1] (at 100 µM), the “stimulation of LPS-enhanced GTPase activity” value is “ineffective; also recorded: did not synergistically increase”.
`Nc1ncnc2c1ncn2[C@@H]1O[C@H](COP(=O)(O)OP(=O)(O)OP(=O)(O)O)[C@@H](O)[C@H]1O` [ATP]: the “ATP concentration of maximum stimulation of GTPase activity” value in experiment [2] (ATP alone, no LPS, biphasic stimulation) lay within 1 to 10 µM. Moreover, in experiment [2] (LPS plus ATP), the “combined effects of LPS and ATP: stimulation calculated for the low Km activity” value was 228 % of basal activity. The “combined effects of LPS and ATP: stimulation measured using standard assay conditions” value in experiment [2] (LPS plus ATP, 2 µM GTP, 0.1 mM ATP, 0.2 mM AMPPNP) is 208 % of basal activity. The “stimulation of low Km GTPase activity” value in experiment [2] (added individually, ATP 10 µM) is given as 70%. The “LPS-stimulated GTPase activity when adenine nucleotide included in the incubation” value in experiment [3] is listed as “pronounced increase”. In experiment [1], the “stimulation (potentiation)” value is recorded as “potentiated; also recorded: pronounced increase in LPS-stimulated GTPase activity” and the “relative abilities of purines” value is recorded as “ATP> ATPγS> ADP> AMPPNP>> β,γ methylene ATP> 2-MeSATP”. For the same compound, the “ATP concentration of striking synergistic stimulation of GTPase activity” value in experiment [1] (ATP and LPS added together, biphasic) lay within 1 to 10 µM. Besides, the “increase in activity of the GTPase” value in experiment [1] (ATP in the presence of LPS) is listed as “three-fold”. The “stimulation of LPS-enhanced GTPase activity” value in experiment [1] (at 1 µM) is listed as “active”.
In the case of `CCN1C(=O)C=CC1=O` [N-ethyl-maleimide], the “inhibition” value in experiment [1] was “not antagonized”; in experiment [1] (in the presence of ADP), “did not block”.
With phosphatidylcholine, the “effect on basal GTPase activity” value in experiment [2] (no LPS) is “did not stimulate basal GTPase activity”. The “inhibition” value in experiment [1] was “nor inhibit LPS-stimulated GTPase activity”.
For the compound `Nc1ncnc2c1ncn2[C@@H]1O[C@H](COP(=O)(O)OP(=O)(O)O)[C@@H](O)[C@H]1O` [ADP], the “LPS-stimulated GTPase activity when adenine nucleotide included in the incubation” value in experiment [3] is recorded as “pronounced increase”. Further, in experiment [1], the “stimulation (potentiation)” value is on record as “potentiated; also recorded: pronounced increase in LPS-stimulated GTPase activity” and the “relative abilities of purines” value is given as “ATP> ATPγS> ADP> AMPPNP>> β,γ methylene ATP> 2-MeSATP”.
For the compound phosphatidylserine, the “effect on basal GTPase activity” value in experiment [2] (no LPS) was “did not stimulate basal GTPase activity”. Also, the “inhibition” value in experiment [1] is “nor inhibit LPS-stimulated GTPase activity”.
On to `CC(C)Cn1c(=O)n(C)c(=O)c2[nH]cnc21` [IBMX], for which the “effect on the LPS activation of the GTPase” value in experiment [3] (P1 purinoreceptor antagonist) was “did not alter”. The “inhibition” value in experiment [1] is “did not alter the LPS activation of the GTPase”. Besides, the “stimulation of LPS-enhanced GTPase activity” value in experiment [1] (at 100 µM) is reported as “did not synergistically increase”.
With `Nc1ncnc2c1ncn2[C@@H]1O[C@H](COP(=O)(O)OP(=O)(O)CP(=O)(O)O)[C@@H](O)[C@H]1O` [β,γ methylene ATP], the “relative abilities of purines” value in experiment [1] is given as “ATP> ATPγS> ADP> AMPPNP>> β,γ methylene ATP> 2-MeSATP”.
In the case of `NC(=O)c1ccc[n+]([C@@H]2O[C@H](COP(=O)([O-])OP(=O)(O)OC[C@H]3O[C@@H](n4cnc5c(N)ncnc54)[C@H](O)[C@@H]3O)[C@@H](O)[C@H]2O)c1` [NAD], the “stimulation of LPS-enhanced GTPase activity” value in experiment [1] (at 100 µM) was “did not synergistically increase”.
